Experimental findings from article PMC4901077, “Development and Identification of a Novel Anti-HIV-1 Peptide Derived by Modification of the N-Terminal Domain of HIV-1 Integrase” (Frontiers in Microbiology, 2016) are described below.

Assay [1] has as its target T1, Full-length recombinant HIV-1 integrase (Human immunodeficiency virus type 1 group M subtype B, UniProt P04585).
T1 construct: Full-length recombinant HIV-1 integrase protein was then loaded onto this oligo substrate; purchased Xpressbio Life Science Products (Express Biotech International)
Kind of assay: HIV-1 IN activity inhibition assay (Xpressbio HIV-1 IN Assay kit, 3'-processing/strand transfer). It is filed as biochemical. As for the experimental part:
Express Biotech International Company performed this assay using its HIV-1 IN Assay kit (Xpressbio Life Science Products, USA. www.xpressbio.com). Briefly, Streptavidin coated 96-well plates were coated with a double-stranded HIV-1 LTR U5 donor substrate (DS) oligonucleotide containing an end-labeled biotin. Full-length recombinant HIV-1 integrase protein was then loaded onto this oligo substrate. Compounds were added to the reaction and then a different double-stranded target substrate (TS) oligo containing 3′-end modifications was added to the plate. The sequence of DS DNA and TS DNA substrates used in this assay were
respectively (Hazuda et al., [1994] and Engelman et al., [1993]). The HIV-1 IN cleaves the terminal two bases from the exposed 3′-end of the HIV-1 LTR DS and then catalyzes a strand-transfer reaction to integrate the DS into the TS. The products of the reaction were detected colorimetrically using an HRP-labeled antibody directed against the TS 3′-end modification. Percent inhibition in the IN assay was calculated and IC50 values were determined.

Another assay addresses T2, HIV-1 IN multimerization (Human immunodeficiency virus type 1 group M subtype B, UniProt P04585).
T2 construct: Full-length IN and LEDGF proteins were expressed in E. coli BL21(DE3); made in house; host or cells: E. coli BL21(DE3)
Kind of assay: HTRF-based IN multimerization assay. To be noted: for EC50: concentration stimulating the Multimerization Increase by 50%, HTRF, read-out: IN-multim MI50; for IN multimerization signal, % of control at 100 µM: measured in the presence of 100 μM concentration, read-out: IN-multim, percentage of control. It counts as binding. As for the experimental part:
(§1) Full-length IN and LEDGF proteins were expressed in E. coli BL21(DE3) and were purified as described (Kessl et al., [2012]; Esposito et al., [2015]; Tintori et al., [2015]). His- and FLAG-tagged INs, were mixed in 25 mM Tris (pH 7.4) buffer containing 150 mM NaCl, 2 mM MgCl2, 0.1% Nonidet P-40, 1 mg/ml BSA. Test compounds were then added to the mixture. A mixture of anti-His6-XL665 and anti-FLAG-EuCryptate antibodies were then added to the reaction and, after an incubation, the plate are read and the HTRF signal is calculated from the 665/620 nm ratio.
(§2) In this assay two IN preparation are used: a first His-tagged IN preparation, and a second Flag-tagged IN preparation. In both preparations the purified IN is at equilibrium as a dimer; such dimers go through monomers exchange. […] The formation of this “hybrid” dimer can be monitored in the HTRF-based assay as described (Esposito et al., [2015]; Tintori et al., [2015]). When the assay is performed in the presence of a compound inhibiting dimerization, the HTRF signal decreases as the concentration of compound increases, whereas in the presence of a compound promoting IN multimerization (association of dimers) the HTRF signal increases as the concentration of the compound increases.

The target of assay [2] is T3, HIV-1 IN-IN subunit exchange (Human immunodeficiency virus type 1 group M subtype B, UniProt P04585).
T3 construct: Full-length IN and LEDGF proteins were expressed in E. coli BL21(DE3); made in house; host or cells: E. coli BL21(DE3)
Kind of assay: HTRF-based IN subunit exchange assay (IN-IN dimerization). It is filed as binding. The following applies: for IC50: concentration required to inhibit the HIV-1 IN-IN subunit exchange by 50%, HTRF, His- and FLAG-tagged IN; for IN-IN subunit exchange, percentage of control: measured in the presence of 100 μM concentration. As for the experimental part:
as §1, §2
(In general: Time-resolved FRET reads energy transfer from a long-lived donor to a nearby acceptor.)

Setting [3] is: Table 1, colorimetric HRP read-out, ±SD, read-out: IN inhibition IC50(μM) ±SD.
Setting [4] is: Table 2, colorimetric HRP read-out, read-out: IN inhibition IC50.

Like-named read-outs stand apart in the source and are kept apart here. Marks after values point to notes of the source that are not given here. Peptide text beside a SMILES is read from it.

For the molecule Ac-DFNLPPVVAK-NH2 [Peptide 9], in assay [1] (setting [3]), the IC50 is 213 ± 12 µM.
Regarding `CC[C@H](C)[C@H](NC(=O)[C@H](CCC(=O)O)NC(=O)[C@H](CCCCN)NC(C)=O)C(=O)N[C@H](C(=O)N[C@@H](C)C(=O)N[C@@H](CO)C(=O)N[C@@H](CS)C(=O)N[C@@H](CC(=O)O)C(=O)N[C@@H](CCCCN)C(=O)N[C@@H](CS)C(N)=O)C(C)C` [Peptide 12] (Ac-KEIVASCDKC-NH2), in assay [1] (setting [3]), the IC50 was 477 ± 23 µM.
As for Ac-VVAKAIVAH-NH2 [Peptide 25], in assay [1] (setting [4]), the IC50 was found to be 13 ± 1 µM. Further, the EC50 at HIV-1 IN multimerization was determined as 4.8 ± 0.4 µM. Further, in assay [2], the IC50 was over 100 µM and the “IN-IN subunit exchange, percentage of control” value was >100 (100%).
As to `CCCC(C(=O)O)c1c(C)nc2ccc(Cl)cc2c1-c1ccccc1` (stereo not drawn) [LEDGIN-6, reference compound], the EC50 at HIV-1 IN multimerization amounted to 10 ± 1 µM. Also, in assay [2], the IC50 is over 100 µM and the “IN-IN subunit exchange, percentage of control” value is listed as >100 (100%).
As for Ac-VVAAEIVAH-NH2 [Peptide 24], the IC50 in assay [1] (setting [4]) stood at 20.8 ± 1.3 µM. Also, on HIV-1 IN multimerization, the EC50 was over 100 µM and the IN multimerization signal, % of control at 100 µM was 100%. Moreover, half-maximal inhibition in assay [2] (IC50) required 32 ± 3 µM.
As for Ac-VVAKEIFAH-NH2 [Peptide 21], in assay [1] (setting [4]), the IC50 was 504 ± 22 µM.
Turning to Ac-GIDKAQDEHE-NH2 [Peptide 2], the IC50 in assay [1] (setting [3]) was 162 ± 9 µM.
For the molecule Ac-VVAKEIVAH-NH2 [Peptide 18], in assay [1] (setting [3]), the 50% inhibitory concentration (IC50) came out at 4.5 ± 0.9 µM. For the same molecule, at HIV-1 IN multimerization, the EC50 is over 100 µM and the IN multimerization signal, % of control at 100 µM was 100%. In addition, in assay [2], the IC50 is over 100 µM and the “IN-IN subunit exchange, percentage of control” value is >100 (100%)^b.
On to Ac-VFAKEIVAH-NH2 [Peptide 20], for which the concentration for half-maximal inhibition (IC50) in assay [1] (setting [4]) is 375 ± 19 µM.

Usually IC50 stands for the point on the concentration scale where inhibition reaches its midpoint.
